Source: patent US20250332300A1 (priority 2024, published 2025)
Where a name gives a salt, the structure may show the parent alone. Read-outs that look alike come from different tables or passages of the source. Positions of bridges follow the written chain, without caps; N, C: chain ends. Non-standard residues stand in square brackets, D forms with d. Residues, ends and D or L forms follow the SMILES beside them. Triazole bridges read from a SMILES are 1,4-linked. Chains are numbered I, II in the order given. *: point of attachment. DOTA = O=C(O)CN1CCN(CC(=O)O)CCN(CC(=O)*)CCN(CC(=O)O)CC1; PEG10 = NCCOCCOCCOCCOCCOCCOCCOCCOCCOCCOCCC(=O)O; Trp(5-OH) = N[C@@H](Cc1c[nH]c2ccc(O)cc12)C(=O)O; NMePhe(4-F) = CN[C@@H](Cc1ccc(F)cc1)C(=O)O; Lys(N3) = [N-]=[N+]=NCCCC[C@H](N)C(=O)O; NMehPhe = CN[C@@H](CCc1ccccc1)C(=O)O; Aad = N[C@@H](CCCC(=O)O)C(=O)O; Gly(cPr) = N[C@H](C(=O)O)C1CC1; NMeK = CN[C@@H](CCCCN)C(=O)O; NMeDap = CN[C@@H](CN)C(=O)O; hLys = NCCCCC[C@H](N)C(=O)O; Orn = NCCC[C@H](N)C(=O)O; Pra = C#CC[C@H](N)C(=O)O; Sar = CNCC(=O)O

Assays:
Assay type in all cases: binding
mouse HER2 (23-653) [1] = biological target: T1, mouse HER2 (23-653) (Mus musculus, UniProt P70424); test: Surface plasmon resonance (SPR) for assessment of peptide affinity, mouse HER2; parameters: mouse HER2 (23-653) using a Cy5 labeled peptide as a probe; made in house; conditions: SPR, mouse HER2 extracellular domain, 25° C., 1:1 binding model; read-out: moHER2-SPR-ONC KD
Source text: Each protein was immobilized either onto a SA sensorchip (Cytiva, BR-1005-31) or CM5 sensorchip (Cytiva, BR-1005-30) to a density of 800-2000 RU.
Target sequence in this assay (P70424 23-653): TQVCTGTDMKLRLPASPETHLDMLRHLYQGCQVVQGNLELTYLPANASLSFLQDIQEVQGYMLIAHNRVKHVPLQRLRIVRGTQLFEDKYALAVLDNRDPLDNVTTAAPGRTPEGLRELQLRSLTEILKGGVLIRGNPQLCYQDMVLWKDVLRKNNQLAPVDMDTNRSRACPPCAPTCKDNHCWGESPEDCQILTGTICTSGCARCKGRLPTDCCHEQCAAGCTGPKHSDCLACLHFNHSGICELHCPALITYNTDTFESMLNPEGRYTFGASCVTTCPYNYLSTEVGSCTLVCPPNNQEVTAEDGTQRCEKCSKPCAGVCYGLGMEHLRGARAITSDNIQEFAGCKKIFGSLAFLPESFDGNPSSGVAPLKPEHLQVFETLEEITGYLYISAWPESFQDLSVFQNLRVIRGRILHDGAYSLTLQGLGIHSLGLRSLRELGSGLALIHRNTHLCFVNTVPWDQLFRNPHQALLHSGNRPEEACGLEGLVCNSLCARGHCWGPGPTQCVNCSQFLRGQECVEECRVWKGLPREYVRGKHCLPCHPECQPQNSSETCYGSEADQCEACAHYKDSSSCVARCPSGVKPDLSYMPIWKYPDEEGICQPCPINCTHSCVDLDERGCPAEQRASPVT

human HER2 (23-652) [2] = biological target: T2, human HER2 (23-652) (Homo sapiens, UniProt P04626); test: Surface plasmon resonance (SPR) for assessment of peptide affinity, human HER2; parameters: towards human HER2 (23-652) and mouse HER2 (23-653); made in house
Method: Each protein was immobilized either onto a SA sensorchip (Cytiva, BR-1005-31) or CM5 sensorchip (Cytiva, BR-1005-30) to a density of 800-2000 RU. […] For the assay setup the same conditions (flow rate, running buffer, peptide dilution) as described above were used. In a first step the Anti Fc IgG Ab (from Human Antibody Capture Kit, Ref. 29234600, Cytiva) was diluted into acetate pH 5.0 at 25 ug/mL and immobilized at a flow rate of 10 uL/min over 360 s to reach a density around 6000 RU. […] The peptides were tested with an association time of 280 s followed by a dissociation time of 3000 s at a flow rate of 30 uL/min. The regeneration was done using 3 M magnesium chloride regeneration solution as obtained with a contact time of 30 s at a flow rate of 10 uL/min. Curve fitting was performed using the BiacoreTM 8K evaluation software.

human HER2 (23-652) [3] = biological target: T2, human HER2 (23-652); test: TR-FRET competition assay for peptide potency, human HER2; parameters: towards human HER2 (23-652) and mouse HER2 (23-653); made in house; host or cells: mammalian cells
Method: (§1) Both proteins containing a His-, Avi-tag and biotin in Nterminus, were expressed in mammalian cells and produced in house. […] Standard assay conditions consist of 20 uL total volume in white 384-well plates (Greiner), in 10 mM HEPES buffer containing 150 mM NaCl, 3 mM EDTA, 0.05% Tween20 and 1% final DMSO. […] The ratiometric FRET assay readout is calculated from the ratio of the raw data of the two distinct fluorescence signals measured in time resolved mode (fluorescence 665 nm/fluorescence 620 nm). IC50 values were calculated with the standard Novartis in-house assay data analysis software (Helios software application, Novartis Institutes for BioMedical Research, unpublished) using the methods described in Comput. Methods. Programs. Biomed. 2006, 82, 31-37 (regression algorithms for nonlinear dose-response curve fitting).

mouse HER2 (23-653) [4] = biological target: T1, mouse HER2 (23-653); test: TR-FRET competition assay for peptide potency, mouse HER2; parameters: mouse HER2 (23-653) using a Cy5 labeled peptide as a probe; made in house; host or cells: mammalian cells
Method: as §1

[5] = SPR, human HER2 extracellular domain, 25° C., 1:1 binding model; read-out: huHER2-SPR-ONC KD
[6] = TR-FRET competition with Cy5 labeled peptide probe, 0.1 nM human HER2, 24 h incubation, read-out: huHER2 TR-FRET IC50
[7] = TR-FRET competition with Cy5 labeled peptide probe, 0.1 nM mouse HER2, 24 h incubation, read-out: moHER2 TR-FRET IC50

Compound	Kd (human HER2 (23-652) [2]; [5]) [nM]	IC50 (human HER2 (23-652) [3]; [6]) [nM]	IC50 (mouse HER2 (23-653) [4]; [7]) [nM]	other results
COCCOCCOCCOCCOCCOCCOCCOCCOCCOCCOCCOCCC(=O)N[C@H]1CCCC(=O)NC[C@@H](C(=O)N(C)[C@@H](Cc2ccc(F)cc2)C(=O)N[C@@H](CCCCNC(=O)CN2CCN(CC(=O)O)CCN(CC(=O)O)CCN(CC(=O)O)CC2)C(N)=O)N(C)C(=O)[C@H](C2CC2)NC(=O)[C@H](Cc2c[nH]c3ccccc23)NC(=O)[C@H](Cc2c[nH]c3ccc(O)cc23)NC(=O)[C@H](CCCCNC(C)=O)N(C)C(=O)[C@H](CCc2ccccc2)N(C)C(=O)[C@H](CO)NC(=O)[C@H](Cc2ccc(O)cc2)NC1=O [Example C2]	–	–	–	Kd (mouse HER2 (23-653) [1]): 0.2 nM
CC(=O)NCCCC[C@H]1C(=O)N[C@@H](Cc2c[nH]c3ccc(O)cc23)C(=O)N[C@@H](Cc2c[nH]c3ccccc23)C(=O)N[C@@H](C2CC2)C(=O)N(C)[C@H](C(=O)N(C)[C@@H](Cc2ccc(F)cc2)C(=O)N[C@@H](CCCCCNC(=O)CN2CCN(CC(=O)O)CCN(CC(=O)O)CCN(CC(=O)O)CC2)C(N)=O)CNC(=O)CCC[C@H](NC(C)=O)C(=O)N[C@@H](Cc2ccc(O)cc2)C(=O)N[C@@H](CO)C(=O)N(C)[C@@H](CCc2ccccc2)C(=O)N1C [Example C17] (Ac-[Aad]YS[NMehPhe][NMeK](Ac)[Trp(5-OH)]W[Gly(cPr)][NMeDap][NMePhe(4-F)][hLys](DOTA)-NH2; lactam 1-9)	< 0.1	< 0.1	0.1	–
CC(=O)NCCCC[C@H]1C(=O)N[C@@H](Cc2c[nH]c3ccc(O)cc23)C(=O)N[C@@H](Cc2c[nH]c3ccccc23)C(=O)N[C@@H](C2CC2)C(=O)N(C)[C@H](C(=O)N(C)[C@@H](Cc2ccc(F)cc2)C(=O)N[C@@H](CCCCNC(=O)CN2CCN(CC(=O)O)CCN(CC(=O)O)CCN(CC(=O)O)CC2)C(N)=O)CNC(=O)CCC[C@H](NC(=O)Cc2nnn[nH]2)C(=O)N[C@@H](Cc2ccc(O)cc2)C(=O)N[C@@H](CO)C(=O)N(C)[C@@H](CCc2ccccc2)C(=O)N1C [Example C13]	–	–	–	Kd (human HER2 (23-652) [2]; read-out: huHER2-SPR-ONC KD; SPR, human HER2 extracellular domain, 25° C., 1:1 binding model): < 0.1 nM; IC50 (human HER2 (23-652) [3]; read-out: huHER2 TR-FRET IC50, TR-FRET competition with Cy5 labeled peptide probe, 0.1 nM human HER2, 24 h incubation): < 0.1 nM; IC50 (mouse HER2 (23-653) [4]; read-out: moHER2 TR-FRET IC50, TR-FRET competition with Cy5 labeled peptide probe, 0.1 nM mouse HER2, 24 h incubation): 0.1 nM
COCCOCCOCCOCCOCCOCCOCCOCCOCCOCCOCCOCCC(=O)N[C@H]1CCCC(=O)NC[C@@H](C(=O)N(C)[C@@H](Cc2ccc(F)cc2)C(=O)N[C@@H](CCCCN)C(N)=O)N(C)C(=O)[C@H](C2CC2)NC(=O)[C@H](Cc2c[nH]c3ccccc23)NC(=O)[C@H](Cc2c[nH]c3ccc(O)cc23)NC(=O)[C@H](CCCCNC(C)=O)N(C)C(=O)[C@H](CCc2ccccc2)N(C)C(=O)[C@H](CO)NC(=O)[C@H](Cc2ccc(O)cc2)NC1=O [Example A43, TFA salt]	0.2	–	0.2	IC50 (human HER2 (23-652) [3]; read-out: huHER2 TR-FRET IC50): < 0.1 nM
CC(=O)NCCCC[C@H]1C(=O)N[C@@H](Cc2c[nH]c3ccc(O)cc23)C(=O)N[C@@H](Cc2c[nH]c3ccccc23)C(=O)N[C@@H](C2CC2)C(=O)N(C)[C@H](C(=O)N(C)[C@@H](Cc2ccc(F)cc2)C(=O)N[C@@H](CCCCNC(=O)CN2CCN(CC(=O)O)CCN(CC(=O)O)CCN(CC(=O)O)CC2)C(=O)O)CNC(=O)CCC[C@H](NC(C)=O)C(=O)N[C@@H](Cc2ccc(O)cc2)C(=O)N[C@@H](CO)C(=O)N(C)[C@@H](CCc2ccccc2)C(=O)N1C [Example C12]	0.4	0.3	1	–
CC(=O)NCCCC[C@H]1C(=O)N[C@@H](Cc2c[nH]c3ccc(O)cc23)C(=O)N[C@@H](Cc2c[nH]c3ccccc23)C(=O)N[C@@H](C2CC2)C(=O)N(C)[C@H](C(=O)N(C)[C@@H](Cc2ccc(F)cc2)C(N)=O)CNC(=O)CCC[C@H](NC(=O)CCOCCOCCOCCOCCOCCOCCOCCOCCOCCOCCNC(=O)CN2CCN(CC(=O)O)CCN(CC(=O)O)CCN(CC(=O)O)CC2)C(=O)N[C@@H](Cc2ccc(O)cc2)C(=O)N[C@@H](CO)C(=O)N(C)[C@@H](CCc2ccccc2)C(=O)N1C [Example C5] ({DOTA-PEG10}-[Aad]YS[NMehPhe][NMeK](Ac)[Trp(5-OH)]W[Gly(cPr)][NMeDap][NMePhe(4-F)]-NH2; lactam 1-9)	0.7	0.5	0.7	–
CC(=O)NCCCC[C@H]1C(=O)N[C@@H](Cc2c[nH]c3ccc(O)cc23)C(=O)N[C@@H](Cc2c[nH]c3ccccc23)C(=O)N[C@@H]([C@H](C)O)C(=O)N(C)[C@H](C(=O)N(C)[C@@H](Cc2ccc(F)cc2)C(=O)N[C@@H](CCCCNC(=O)CN2CCN(CC(=O)O)CCN(CC(=O)O)CCN(CC(=O)O)CC2)C(N)=O)CNC(=O)CCC[C@H](NC(C)=O)C(=O)N[C@@H](Cc2ccc(O)cc2)C(=O)N[C@@H](CO)C(=O)N(C)[C@@H](CCc2ccccc2)C(=O)N1C [Example C6]	0.3	0.5	–	IC50 (human HER2 (23-652) [3]; value in parentheses (**): recalculated after further repetition, read-out: huHER2 TR-FRET IC50, recalculated value achieved after further repetition): 0.3 nM; IC50 (mouse HER2 (23-653) [4]; value in parentheses (**): recalculated after further repetition, read-out: moHER2 TR-FRET IC50, recalculated value achieved after further repetition): 1 nM
CC(=O)NCCCC[C@H]1C(=O)N[C@@H](Cc2c[nH]c3ccc(O)cc23)C(=O)N[C@@H](Cc2c[nH]c3ccccc23)C(=O)N[C@@H](C2CC2)C(=O)N(C)[C@H](C(=O)N(C)[C@@H](Cc2ccc(F)cc2)C(=O)N[C@@H](CCCCNC(=O)CN2CCN(CC(=O)O)CCN(CC(=O)O)CC2)C(N)=O)CNC(=O)CCC[C@H](NC(C)=O)C(=O)N[C@@H](Cc2ccc(O)cc2)C(=O)N[C@@H](CO)C(=O)N(C)[C@@H](CCc2ccccc2)C(=O)N1C [Example B10]	< 0.1	–	< 0.1	IC50 (human HER2 (23-652) [3]; read-out: huHER2 TR-FRET IC50): < 0.1 nM
CC(=O)NCCCC[C@H]1C(=O)N[C@@H](Cc2c[nH]c3ccc(O)cc23)C(=O)N[C@@H](Cc2c[nH]c3ccccc23)C(=O)N[C@@H](C2CC2)C(=O)N(C)[C@H](C(=O)N(C)[C@@H](Cc2ccc(F)cc2)C(=O)N[C@@H](CCCNC(=O)CN2CCN(CC(=O)O)CCN(CC(=O)O)CCN(CC(=O)O)CC2)C(N)=O)CNC(=O)CCC[C@H](NC(C)=O)C(=O)N[C@@H](Cc2ccc(O)cc2)C(=O)N[C@@H](CO)C(=O)N(C)[C@@H](CCc2ccccc2)C(=O)N1C [Example C9] (Ac-[Aad]YS[NMehPhe][NMeK](Ac)[Trp(5-OH)]W[Gly(cPr)][NMeDap][NMePhe(4-F)][Orn](DOTA)-NH2; lactam 1-9)	< 0.1	< 0.1	0.2	–
I: Ac-[Pra][Sar][Sar][Sar][Sar][Sar][Sar][Sar][Sar][Sar][Sar][Sar][Sar][Sar][Sar]K(DOTA)[Sar][Sar][Sar][Sar][Sar][Sar][Sar][Sar][Sar][Sar][Sar][Sar][Sar][Sar][Pra]-NH2 / II: Ac-[Aad]YS[NMehPhe][NMeK](Ac)[Trp(5-OH)]W[Gly(cPr)][NMeDap][NMePhe(4-F)][Lys(N3)]-NH2 / III: Ac-[Aad]YS[NMehPhe][NMeK](Ac)[Trp(5-OH)]W[Gly(cPr)][NMeDap][NMePhe(4-F)][Lys(N3)]-NH2 (triazole I:1-II:11, I:31-III:11; lactam II:1-II:9, III:1-III:9) [Example C4]	< 0.1	0.1	0.4	–
CC(=O)NCCCC[C@H]1C(=O)N[C@@H](Cc2c[nH]c3ccc(O)cc23)C(=O)N[C@H](Cc2c[nH]c3ccccc23)C(=O)N[C@@H](C2CC2)C(=O)N(C)[C@H](C(=O)N(C)[C@@H](Cc2ccc(F)cc2)C(=O)N[C@@H](CCCCNC(=O)CN2CCN(CC(=O)O)CCN(CC(=O)O)CCN(CC(=O)O)CC2)C(N)=O)CNC(=O)CCC[C@H](NC(C)=O)C(=O)N[C@@H](Cc2ccc(O)cc2)C(=O)N[C@@H](CO)C(=O)N(C)[C@@H](CCc2ccccc2)C(=O)N1C [Example C31]	> 6000	4840	> 10000	–
